Key:
[1] = biological target: T1, 1,25-(OH)2 D3 receptors (chick intestine) (Gallus gallus, UniProt O42392); test: Competitive Binding to 1,25-(OH)2 D3 Intestine Receptors, chick; conditions: a/b×100 from amounts displacing 50% of 1,25-(OH)2[3H]D3
T1 construct: receptor prepared from intestine of chick, rat and calf; from tissue; host or cells: chick proximal small-intestine mucosa, cytosol, 35% ammonium sulphate precipitate
T1 sequence (O42392 1-451): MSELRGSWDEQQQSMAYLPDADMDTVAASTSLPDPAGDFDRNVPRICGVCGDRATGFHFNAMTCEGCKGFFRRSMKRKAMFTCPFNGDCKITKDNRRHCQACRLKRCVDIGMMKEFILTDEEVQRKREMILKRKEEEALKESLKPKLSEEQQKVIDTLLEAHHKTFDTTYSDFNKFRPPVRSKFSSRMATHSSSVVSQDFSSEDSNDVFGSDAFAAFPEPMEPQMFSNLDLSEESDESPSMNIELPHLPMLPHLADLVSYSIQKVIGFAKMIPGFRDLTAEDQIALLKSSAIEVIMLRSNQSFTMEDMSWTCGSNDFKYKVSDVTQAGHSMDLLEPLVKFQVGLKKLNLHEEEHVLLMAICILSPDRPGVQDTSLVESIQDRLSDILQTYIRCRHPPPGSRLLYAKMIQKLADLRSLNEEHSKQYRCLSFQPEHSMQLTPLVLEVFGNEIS
Method: The ability of vitamin D3 metabolites to compete for 1,25-(OH)[^3 H]D3 receptor binding sites was evaluated with receptor prepared from intestine of chick, rat and calf. […] Mucosa was collected and washed three times with 10 volumes of cold KTED buffer. The washed mucosa was homogenized in KTED buffer (20% w/v) using a Polytron Pt20 tissue disruptor. Cytosol was prepared by centrifugation of the homogenized mucosa at 300,000×g for 1 hour. […] The ammonium sulphate treated cytosol was centrifuged at 20,000×g for 10 minutes. The supernatant was discarded and the pellet lyophilized and stored at […] Prior to binding assay the pellet was resuspended in cold binding assay buffer containing 150 mM KCl, 50 mM NaPO4, 1.5 mM EDTA and 5 mM dithiothreitol.

[2] = tested on: HL-60 promyelocytic leukemia cells; test: Inhibition of proliferation of HL-60 cells; type: cell-based; conditions: Homo sapiens, HL-60, 192 h, 8 days; for inhibition at 0.001 µM: 0.1 × 10^-8 M; for inhibition at 0.01 µM: 1 × 10^-8 M; for inhibition at 0.1 µM: 10 × 10^-8 M; for IC50: from dose response curves, read-out: ID50 (concentration which reduced the cell number by 50%)
Method: (§1) Inhibition of Cell Proliferation and Induction of Cell Differentiation
(§2) Cultures of HL-60 promyelocytic leukemia cells were established in the absence (control) and presence of various concentrations of test compounds. After an 8-day incubation period, the cultures were evaluated for proliferation of tumor cells, cell viability, and cellular differentiation. Proliferation was assessed by directly enumerating the increased number of tumor cells resulting from cell division during incubation. Viability was assessed by dye exclusion technique to learn whether any of the compounds were lethal to the cultured HL-60 cells. Cellular differentiation was evaluated by determining the number of cells which had acquired the enzymes necessary to support a respiratory burst, a characteristic of mature macrophages and granulocytes.
(§3) Tissue culture medium used in these experiments was RPMI-1640 supplemented to 10% v/v with heat-inactivated fetal bovine serum and to an additional 1.6 mM with L-glutamine.
(§4) Test compounds were dissolved in sufficient ethanol to yield stock solutions of 1×10^-2 or 1×10^-3 molar. Reduced lighting was used when working with compounds and stock solutions were stored in the dark at -20° C. in an argon atmosphere. Compounds were diluted in tissue culture medium and added to flasks containing HL-60 cells to achieve the final concentration described in each test.
(§5) The HL-60 tumor cell line was originally derived from a patient with promyelocytic leukemia and was obtained from the American Type Culture Collection. The cells were maintained in liquid culture by serial passage twice weekly in tissue culture medium. […] In any test, three replicate flasks were incubated without compound (control) or in the presence of varying concentrations of test compound. Ethanol, used as the vehicle, was kept constant in all dilutions in each test and had no effect on cell proliferation, viability or cell differentiation at the concentrations used (≤0.1%). After 8 days of incubation at 37° in a humidified atmosphere of 5% CO2 in air, cultures were evaluated for tumor cell proliferation, viability and differentiation.
Quantitation of proliferation was done by enumerating the number of HL-60 cells in each individual flask (3 flasks per experimental point) using an Elzone electronic particle counter. Results are shown as the percent reduction of cell number calculated for each concentration tested according to the formula: [formula] The results are also expressed as the concentration which reduced the cell number by 50% (ID50).

[3] = tested on: HL-60 promyelocytic leukemia cells; test: Induction of differentiation of HL-60 cells (NBT reduction); type: cell-based, human; conditions: 8 days; for EC50: Homo sapiens, HL-60, 192 h, from dose response curves, read-out: ED50 (concentration which induced differentiation of 50% of the cells)
Method: as §1, §2, §3, §4, §5
Quantitation of differentiated cells was done by the biochemical method of nitroblue tetrazolum (NBT) reduction. One million HL-60 cells were pooled from replicate cultures, centrifuged at 220×g for 10 minutes, and resuspended in 1 ml of Ca^++ -Mg^++ -deficient phosphate buffered saline prepared by supplementing Ca^++ -Mg^++ -free phosphate buffered saline (PBS) to 20% v/v with heat-inactivated fetal bovine serum). Nitroblue tetrazolium was dissolved at 0.5 mg per ml in Ca^++ -Mg^++ -free PBS with gentle heating and frequent mixing. A stock solution of 1 mg tetradecanoyl phorbol acetate (TPA) per ml in ethanol, stored at -20°, was diluted 100-fold with Ca^++ -Mg^++ -free PBS to prepare a working solution. The test was done by adding 1 ml of NBT solution and 0.02 ml of the working TPA solution to the HL-60 cells. After mixing, the tubes were incubated in a 37° water bath for 25 minutes then transferred to ice. Undifferentiated and differentiated cells present in any sample were determined microscopically by surveying a minimum of 300 cells per sample. Cells without pigmented granules (clear cells) were judged to be undifferentiated while those containing greater than 3 blue-black formazan granules were scored as differentiated. Generally, differentiated cells were intensely pigmented clearly indicating the enzymatic conversion of NBT to formazan. Results are expressed as the percentage of differentiated cells present in any sample as calculated according to the formula: [formula] The results are also expressed as the concentration of compound which induced differentiation of 50% of the cells (ED50).

[4] = read-out: % Reduction in cell number

Row | Competitive Binding to 1,25-(OH)2 D3 Receptors - % of 1,25-(OH)2 D3 Effect, chick intestine [1] | IC50 [2] | EC50 [3] | Compound | inhibition at 0.0001 µM ([2]; 0.01 × 10^-8 M, read-out: % Reduction in cell number) | inhibition at 0.001 µM [2, 4] | inhibition at 0.01 µM [2, 4] | inhibition at 0.1 µM [2, 4] | % Differentiated cells ([3]; 0.01 × 10^-8 M) | % Differentiated cells ([3]; 0.1 × 10^-8 M) | % Differentiated cells ([3]; 1 × 10^-8 M) | % Differentiated cells ([3]; 10 × 10^-8 M)
1 | 47% | 2 nM | 2 nM | C=C1/C(=C\C=C2/CCC[C@]3(C)[C@@H]([C@H](C)CC#CC(O)(C(F)(F)F)C(F)(F)F)CC[C@@H]23)C[C@@H](O)C[C@@H]1O [Compound B] | 15% | 31% | 85% | 89% | 13% | 29% | 95% | 98%
2 | 60% | 6 nM | 9 nM | C=C1/C(=C\C=C2/CCC[C@]3(C)[C@@H]([C@H](C)CC#CC(C)(C)O)CC[C@@H]23)C[C@@H](O)C[C@@H]1O [Compound A, 1α,25-dihydroxy-23-yne-cholecalciferol] | – | 30% | 67% | 85% | – | 15% | 54% | 98%
